Assays:
full length human RORγt = target: T1, full length human RORγt (Homo sapiens, UniProt P51449); assay: 5×RORE based luciferase assay; assay type: cell-based; conditions: COS-7 cells transfected with 5×RORE-Luc and hRORγt, 18-20 h treatment
T1 construct: full length human RORγt together in COS-7 cells; expressed in transfected cells; host or cells: COS-7
T1 sequence (P51449 1-497 isoform P51449-2): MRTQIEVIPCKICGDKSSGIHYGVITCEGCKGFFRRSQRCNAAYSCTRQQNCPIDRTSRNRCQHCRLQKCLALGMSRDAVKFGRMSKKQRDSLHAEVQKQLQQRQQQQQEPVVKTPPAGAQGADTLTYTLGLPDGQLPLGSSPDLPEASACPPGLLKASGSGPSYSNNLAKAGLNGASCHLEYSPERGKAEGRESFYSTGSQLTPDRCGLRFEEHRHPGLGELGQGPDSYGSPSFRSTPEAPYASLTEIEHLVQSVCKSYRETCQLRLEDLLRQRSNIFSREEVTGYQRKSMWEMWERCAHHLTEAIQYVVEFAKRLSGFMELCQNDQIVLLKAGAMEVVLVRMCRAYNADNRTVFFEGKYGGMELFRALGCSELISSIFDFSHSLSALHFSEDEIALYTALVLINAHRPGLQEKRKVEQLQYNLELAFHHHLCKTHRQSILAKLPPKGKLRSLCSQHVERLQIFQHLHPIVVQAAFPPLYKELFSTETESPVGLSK
Procedure: Human RORγt (hRORγt) inhibitors were screened in RORE (RORγt Response Element) based Luciferase assay by transient transfection of 5×RORE (5 tandem repeats of RORγt Response Element) and full length human RORγt together in COS-7 cells. COS-7 cells were maintained as monolayer in complete DMEM (High Glucose) medium in presence of 2 mM Glutamin and 1× Sodium Pyruvate. Day before transfection, 15000 cells were seeded in 96 well cell culture plate in 100 μl antibiotic free medium and incubated at 37° C. in 5% CO2 containing humidified chamber O/N. Prior to transfection, cells were fed with fresh complete growth medium and incubated until the addition of transfection complex. Transfection complex for the required numbers of wells were prepared from pGL2-promoter-5×RORE-Luc plasmid, pcDNA3.1 (+)-hRORγt expression plasmid, pβ-GAL plasmid (transfection control), and Lipofectamine 3000 (Invitrogen). 50 μl of transfection complex were added in 100 μl of complete medium to respective wells, mixed gently and plate was incubated for 5-6 h at 37° C. in 5% CO2 containing humidified chamber. After 5 h of transfection, content of the wells were aspirated and cells were treated with increasing concentration of RORγt inverse agonist in medium devoid of serum with a final DMSO concentration of 0.2% for 18-20 h at 37° C. in 5% CO2 containing humidified chamber. Next day, cells were lysed and the lysates were assayed for luciferase and β-GAL activity using Promega's luciferase assay system and an in-house made β-GAL assay buffer respectively. Luciferase signals were normalized with β-GAL and % activity was determined with respect to that of 10 nM control ligand.
IC50 of selected compounds were then determined by nonlinear regression analysis of % activity, plotted against compound concentration (Table 4).

[1] = system: secreted IL-17 in peripheral blood mononuclear cells (PBMCs); assay: Human IL-17 inhibition assay; assay type: cell-based; conditions: PBMC, anti-CD3/anti-CD28, 72 h, read-out: IL17 IC50
Procedure: Peripheral blood mononuclear cells (PBMCs) were isolated from healthy volunteers and subjected to T cell polarization assay. Two million PBMCs were placed on anti-CD3 (Biolegend, US) coated 96-well plates and 1 μg/mL of anti-CD28 (Biolegend, US) was added along with RORγt inhibitors or the vehicle control and incubated at 37° C. and 5% CO2 for 72 h. At the end of incubation time, the supernatant was collected and analyzed for secreted IL-17 using sandwich enzyme immunoassay (Mabtech AB, Sweden). The results were analyzed using Graphpad Prism and the half-maximal inhibitory concentrations (IC50) of the test compounds were derived (Table 4).

SMILES	IC50 (full length human RORγt)	IC50 [1]
CCS(=O)(=O)c1ccc(CC(=O)Nc2cc(Cl)c(C3(c4noc(-c5ccc(C#N)cc5)n4)CC3)c(Cl)c2)nc1 [Example 53, N-(3,5-dichloro-4-(1-(5-(4-cyanophenyl)-1,2,4-oxadiazol-3-yl)cyclopropyl)phenyl)-2-(5-(ethylsulfonyl)pyridin-2-yl)acetamide]	1.9 nM	48 nM
CCS(=O)(=O)c1ccc(CC(=O)Nc2cc(Cl)c(C3(c4nc5ccc(F)cc5o4)CC3)c(Cl)c2)nc1 [Example 58, N-(3,5-dichloro-4-(1-(6-fluorobenzo[d]oxazol-2-yl)cyclopropyl)phenyl)-2-(5-(ethylsulfonyl)pyridin-2-yl)acetamide]	3.4 nM	23.3 nM
CCS(=N)(=O)c1ccc(CC(=O)Nc2cc(Cl)c(C3(c4noc(-c5ccc(F)cc5)n4)CC3)c(Cl)c2)cc1 (stereo not drawn) [Example 61, N-(3,5-dichloro-4-(1-(5-(4-fluorophenyl)-1,2,4-oxadiazol-3-yl)cyclopropyl)phenyl)-2-(4-(ethylsulfonimidoyl)phenyl)acetamide]	9.2 nM	35 nM
O=C(Cc1ccc(S(=O)(=O)NC2CC2)cc1)Nc1cc(Cl)c(C2(c3noc(-c4ccc(F)cc4)n3)CC2)c(Cl)c1 [Example 63, 2-(4-(N-cyclopropylsulfamoyl)phenyl)-N-(3,5-dichloro-4-(1-(5-(4-fluorophenyl)-1,2,4-oxadiazol-3-yl)cyclopropyl)phenyl)acetamide]	11 nM	18 nM
O=C(Cc1ccc(S(=O)(=O)NC2CC2)cc1)Nc1cc(Cl)c(C2(c3noc(-c4ccc(C(F)(F)F)cc4)n3)CC2)c(Cl)c1 [Example 64, 2-(4-(N-cyclopropylsulfamoyl)phenyl)-N-(3,5-dichloro-4-(1-(5-(4-(trifluoromethyl)phenyl)-1,2,4-oxadiazol-3-yl)cyclopropyl)phenyl)acetamide]	15.9 nM	63 nM
O=C(Cc1ccc(S(=O)(=O)NC2CC2)cc1)Nc1cc(Cl)c(C2(c3nc4ccc(F)cc4o3)CC2)c(Cl)c1 [Example 65, 2-(4-(N-cyclopropylsulfamoyl)phenyl)-N-(3,5-dichloro-4-(1-(6-fluorobenzo[d]oxazol-2-yl)cyclopropyl)phenyl)acetamide]	2.4 nM	6 nM
CCS(=O)(=O)c1ccc(CC(=O)Nc2cc(Cl)c(C3(c4noc(-c5ccc(F)c(F)c5)n4)CC3)c(Cl)c2)cn1 [Example 68, N-(3,5-dichloro-4-(1-(5-(3,4-difluorophenyl)-1,2,4-oxadiazol-3-yl)cyclopropyl)phenyl)-2-(6-(ethylsulfonyl)pyridin-3-yl)acetamide]	9.6 nM	42.7 nM
CCS(=O)(=O)c1ccc(CC(=O)Nc2cc(Cl)c(C3(c4noc(-c5ccc(F)cc5F)n4)CC3)c(Cl)c2)cn1 [Example 69, N-(3,5-dichloro-4-(1-(5-(2,4-difluorophenyl)-1,2,4-oxadiazol-3-yl)cyclopropyl)phenyl)-2-(6-(ethylsulfonyl)pyridin-3-yl)acetamide]	6.4 nM	22.4 nM
CCS(=O)(=O)c1ccc(CC(=O)Nc2cc(Cl)c(C3(c4noc(-c5ccc(F)c(Cl)c5)n4)CC3)c(Cl)c2)cn1 [Example 70, N-(3,5-dichloro-4-(1-(5-(3-chloro-4-fluorophenyl)-1,2,4-oxadiazol-3-yl)cyclopropyl)phenyl)-2-(6-(ethylsulfonyl)pyridin-3-yl)acetamide]	17 nM	22 nM
CCS(=O)(=O)c1ccc(CC(=O)Nc2cc(Cl)c(C3(c4noc(-c5ccc(Cl)c(Cl)c5)n4)CC3)c(Cl)c2)cn1 [Example 71, N-(3,5-dichloro-4-(1-(5-(3,4-dichlorophenyl)-1,2,4-oxadiazol-3-yl)cyclopropyl)phenyl)-2-(6-(ethylsulfonyl)pyridin-3-yl)acetamide]	15.7 nM	32 nM
CCS(=O)(=O)c1ccc(CC(=O)Nc2cc(Cl)c(C3(c4noc(-c5ccc(Cl)cc5)n4)CC3)c(Cl)c2)cn1 [Example 72, N-(3,5-dichloro-4-(1-(5-(4-chlorophenyl)-1,2,4-oxadiazol-3-yl)cyclopropyl)phenyl)-2-(6-(ethylsulfonyl)pyridin-3-yl)acetamide]	20 nM	20.8 nM
CCS(=O)(=O)c1ccc(CC(=O)Nc2cc(Cl)c(C3(c4noc(-c5ccc(C#N)cc5)n4)CC3)c(Cl)c2)cn1 [Example 73, N-(3,5-dichloro-4-(1-(5-(4-cyanophenyl)-1,2,4-oxadiazol-3-yl)cyclopropyl)phenyl)-2-(6-(ethylsulfonyl)pyridin-3-yl)acetamide]	17.6 nM	23.4 nM
CCS(=O)(=O)c1ccc(CC(=O)Nc2cc(Cl)c(C3(c4nc5ccc(F)cc5o4)CC3)c(Cl)c2)cn1 [Example 74, N-(3,5-dichloro-4-(1-(6-fluorobenzo[d]oxazol-2-yl)cyclopropyl)phenyl)-2-(6-(ethylsulfonyl)pyridin-3-yl)acetamide]	23.9 nM	23.8 nM
CCS(=O)(=O)c1cnc(CC(=O)Nc2cc(Cl)c(C3(c4nc5ccc(F)cc5o4)CC3)c(Cl)c2)cn1 [Example 78, N-(3,5-dichloro-4-(1-(6-fluorobenzo[d]oxazol-2-yl)cyclopropyl)phenyl)-2-(5-(ethylsulfonyl)pyrazin-2-yl)acetamide]	7.9 nM	47.3 nM
CCS(=O)(=O)c1ccc(CC(=O)Nc2cc(Cl)c(C3(c4nnc(-c5ccc(F)cc5)o4)CC3)c(Cl)c2)cc1 [Example 79, N-(3,5-dichloro-4-(1-(5-(4-fluorophenyl)-1,3,4-oxadiazol-2-yl)cyclopropyl)phenyl)-2-(4-(ethylsulfonyl)phenyl)acetamide]	12.3 nM	39 nM

Reference: patent US20190152962A1, “CYCLOPROPYL DERIVATIVES AS ROR-GAMMA MODULATORS” (CADILA HEALTHCARE LIMITED, priority 2016, published 2019)
